Values after ≈ are worked out from the molar mass of the structure shown. Where two headings read alike, the source gives them in different places.
Legend:
[1] = tested on: Mycobacterium tuberculosis H37Ra ITM-M006710 (ATCC 9431); experiment: Antimycobacterial microdilution (resazurin) vs Mtb H37Ra; assay type: cell-based; settings: Middlebrook 7H9, resazurin, recalculated from µg/mL, read-out: MIC Mtb H37Ra
[2] = tested on: Escherichia coli CCM 3954 (ATCC 25922); experiment: Antibacterial microdilution broth (EUCAST); assay type: cell-based; settings: Escherichia coli, read-out: MIC Escherichia coli
[3] = tested on: Mycobacterium avium DSM 44,156 (ATCC 25291); experiment: Antimycobacterial microdilution (resazurin) vs M. avium; assay type: cell-based; settings: Mycobacterium avium, Middlebrook 7H9, resazurin; read-out: MIC M. avium
[4] = tested on: Candida parapsilosis CCM 8260 (ATCC 22019); experiment: Antifungal microdilution broth (EUCAST); assay type: cell-based; settings: Lodderomyces parapsilosis, read-out: MIC Candida parapsilosis
[5] = tested on: Klebsiella pneumoniae CCM 4415 (ATCC 10031); experiment: Antibacterial microdilution broth (EUCAST); assay type: cell-based; settings: Klebsiella pneumoniae, read-out: MIC Klebsiella pneumoniae
[6] = tested on: Candida krusei CCM 8271 (ATCC 6258); experiment: Antifungal microdilution broth (EUCAST); assay type: cell-based; settings: Pichia kudriavzevii, read-out: MIC Candida krusei
[7] = tested on: Lichtheimia corymbifera CCM 8077; experiment: Antifungal microdilution broth (EUCAST); assay type: cell-based; settings: Lichtheimia corymbifera, read-out: MIC Lichtheimia corymbifera
[8] = tested on: Mycobacterium tuberculosis H37Rv CNCTC My 331/88 (ATCC 27294); experiment: Microplate Alamar Blue assay vs Mtb H37Rv; assay type: cell-based; settings: Mycobacterium tuberculosis, pH 6.6, MABA, Middlebrook 7H9 pH 6.6, recalculated from µg/mL; read-out: MIC Mtb H37Rv
[9] = tested on: Staphylococcus epidermidis CCM 4418 (ATCC 12228); experiment: Antibacterial microdilution broth (EUCAST); assay type: cell-based; settings: read-out: MIC Staphylococcus epidermidis
[10] = tested on: Candida tropicalis CCM 8264 (ATCC 750); experiment: Antifungal microdilution broth (EUCAST); assay type: cell-based; settings: read-out: MIC Candida tropicalis
[11] = tested on: Aspergillus fumigatus ATCC 204305; experiment: Antifungal microdilution broth (EUCAST); assay type: cell-based; settings: Aspergillus fumigatus, read-out: MIC Aspergillus fumigatus
[12] = tested on: Acinetobacter baumannii DSM 30007 (ATCC 19606); experiment: Antibacterial microdilution broth (EUCAST); assay type: cell-based; settings: read-out: MIC Acinetobacter baumannii
[13] = tested on: Trichophyton interdigitale CCM 8377 (ATCC 9533); experiment: Antifungal microdilution broth (EUCAST); assay type: cell-based; settings: Trichophyton interdigitale, read-out: MIC Trichophyton interdigitale
[14] = tested on: Mycobacterium kansasii DSM 44,162 (ATCC 12478); experiment: Antimycobacterial microdilution (resazurin) vs M. kansasii; assay type: cell-based; settings: read-out: MIC M. kansasii
[15] = tested on: HepG2 cell line; experiment: Cytotoxicity screening, CellTiter 96 assay; settings: for IC50: Homo sapiens, HepG2, 24 h, read-out: IC50 HepG2
[16] = tested on: Pseudomonas aeruginosa CCM 3955 (ATCC 27853); experiment: Antibacterial microdilution broth (EUCAST); assay type: cell-based; settings: read-out: MIC Pseudomonas aeruginosa
[17] = tested on: Enterococcus faecalis CCM 4224 (ATCC 29212); experiment: Antibacterial microdilution broth (EUCAST); assay type: cell-based; settings: read-out: MIC Enterococcus faecalis
[18] = tested on: Mycolicibacterium smegmatis DSM 43,465 (ATCC 607); experiment: Antimycobacterial microdilution (resazurin) vs M. smegmatis; assay type: cell-based; settings: Middlebrook 7H9, resazurin, read-out: MIC M. smeg.
[19] = tested on: Candida albicans CCM 8320 (ATCC 24433); experiment: Antifungal microdilution broth (EUCAST); assay type: cell-based; settings: Candida albicans, read-out: MIC Candida albicans
[20] = tested on: Aspergillus flavus CCM 8363; experiment: Antifungal microdilution broth (EUCAST); assay type: cell-based; settings: Aspergillus flavus, read-out: MIC Aspergillus flavus
[21] = tested on: Mycolicibacterium aurum DSM 43,999 (ATCC 23366); experiment: Antimycobacterial microdilution (resazurin) vs M. aurum; assay type: cell-based; settings: Middlebrook 7H9, resazurin, read-out: MIC M. aurum
[22] = tested on: Staphylococcus aureus subsp. aureus CCM 4223 (ATCC 29213); experiment: Antibacterial microdilution broth (EUCAST); assay type: cell-based; settings: read-out: MIC Staphylococcus aureus subsp. aureus
[23] = tested on: methicillin-resistant Staphylococcus aureus subsp. aureus (MRSA) CCM 4750 (ATCC 43300); experiment: microbe, parasite or virus in culture; assay type: cell-based; settings: read-out: MIC Methicillin-resistant Staphylococcus aureus subsp. aureus

For `O=C(Nc1ccc2c(c1)B(O)OC2)c1cnc(O)cn1` [Compound 9, 5-hydroxy-N-(1-hydroxy-1,3-dihydrobenzo[c][1,2]oxaborol-6-yl)pyrazine-2-carboxamide], the MIC [1] was 115 µM (≈ 31.3 µg/mL), the MIC ([2]; 24h incubation) was > 500 µM and the MIC ([2]; 48h incubation) was > 500 µM. For the same compound, the MIC [3] was 231 µM (≈ 62.5 µg/mL), the MIC ([4]; 24h incubation) was > 500 µM and the MIC ([4]; 48h incubation) was > 500 µM. For the same compound, the MIC ([5]; 24h incubation) was > 500 µM, the MIC ([5]; 48h incubation) was > 500 µM and the MIC ([6]; 24h incubation) was > 500 µM. The MIC ([6]; 48h incubation) was > 500 µM, the MIC ([7]; CCM8077, 24h incubation) was > 500 µM and the MIC ([7]; CCM8077, 48h incubation) was > 500 µM. For the same compound, the MIC [8] was 184 µM (≈ 50 µg/mL), the MIC ([9]; 24h incubation) was > 500 µM and the MIC ([9]; 48h incubation) was > 500 µM. The MIC ([10]; 24h incubation) was > 500 µM, the MIC ([10]; 48h incubation) was > 500 µM and the MIC ([11]; ATCC204305, 24h incubation) was > 500 µM. The MIC ([11]; ATCC204305, 48h incubation) was > 500 µM, the MIC ([12]; 24h incubation) was > 500 µM and the MIC ([12]; 48h incubation) was > 500 µM. For the same compound, the MIC ([13]; 72h incubation) was > 500 µM, the MIC ([13]; 120h incubation) was > 500 µM and the melting point was 338.3 to 340.1 °C. The MIC [14] was 115 µM (≈ 31.3 µg/mL), the IC50 [15] was > 1000 µM and the MIC ([16]; 24h incubation) was > 500 µM. For the same compound, the MIC ([16]; 48h incubation) was > 500 µM, the MIC ([17]; 24h incubation) was > 500 µM and the MIC ([17]; 48h incubation) was > 500 µM. The MIC [18] was 57.6 µM (≈ 15.6 µg/mL), the MIC ([19]; 24h incubation) was > 500 µM and the MIC ([19]; 48h incubation) was > 500 µM. For the same compound, the MIC ([20]; CCM8363, 24h incubation) was > 500 µM, the MIC ([20]; CCM8363, 48h incubation) was > 500 µM and the MIC [21] was 231 µM (≈ 62.5 µg/mL). For the same compound, the MIC ([22]; 24h incubation) was > 500 µM, the MIC ([22]; 48h incubation) was > 500 µM and the MIC ([23]; 24 h) was > 500 µM. The MIC ([23]; 48 h) was > 500 µM.

With `O=C(Nc1ccc2c(c1)B(O)OC2)c1ccc(C(F)(F)F)cn1` [Compound 11, N-(1-hydroxy-1,3-dihydrobenzo[c][1,2]oxaborol-6-yl)-5-(trifluoromethyl)picolinamide] the MIC [1] was 97 µM (≈ 31.2 µg/mL), the MIC ([2]; 24 h) was > 125 µM and the MIC ([2]; 48 h) was > 125 µM. The MIC [3] was 97 µM (≈ 31.2 µg/mL), the MIC ([4]; 24 h) was > 125 µM and the MIC ([4]; 48 h) was > 125 µM. The MIC ([5]; 24 h) was > 125 µM, the MIC ([5]; 48 h) was > 125 µM and the MIC ([6]; 24 h) was > 125 µM. The MIC ([6]; 48 h) was > 125 µM, the MIC ([7]; CCM8077, 24 h) was > 125 µM and the MIC ([7]; CCM8077, 48 h) was > 125 µM. The MIC [8] was 9.72 µM (≈ 3.13 µg/mL), the MIC ([9]; 24 h) was > 125 µM and the MIC ([9]; 48 h) was > 125 µM. For the same compound, the MIC ([10]; 24 h) was > 125 µM, the MIC ([10]; 48 h) was > 125 µM and the MIC ([11]; ATCC204305, 24 h) was > 125 µM. For the same compound, the MIC ([11]; ATCC204305, 48 h) was > 125 µM, the MIC ([12]; 24 h) was > 125 µM and the MIC ([12]; 48 h) was > 125 µM. The MIC ([13]; 72 h) was > 125 µM, the MIC ([13]; 120 h) was > 125 µM and the melting point was 188.1 to 188.9 °C. The MIC ([14]; Middlebrook 7H9, resazurin) was 12.1 µM (≈ 3.91 µg/mL), the IC50 [15] was > 100 µM and the “toxicity to HepG2 up to highest tested concentration” value ([15]; tested up to 500 µM (2, 3), 250 µM (12, 17), 100 µM (6, 7, 11) because of solubility) was “non-toxic”. For the same compound, the MIC ([16]; 24 h) was > 125 µM, the MIC ([16]; 48 h) was > 125 µM and the MIC ([17]; 24 h) was > 125 µM. For the same compound, the MIC ([17]; 48 h) was > 125 µM, the MIC [18] was 24.2 µM (≈ 7.81 µg/mL) and the MIC ([19]; 24 h) was > 125 µM. For the same compound, the MIC ([19]; 48 h) was > 125 µM, the MIC ([20]; CCM8363, 24 h) was > 125 µM and the MIC ([20]; CCM8363, 48 h) was > 125 µM. For the same compound, the MIC [21] was 24.2 µM (≈ 7.81 µg/mL), the MIC ([22]; 24 h) was > 125 µM and the MIC ([22]; 48 h) was > 125 µM. For the same compound, the MIC ([23]; 24 h) was > 125 µM and the MIC ([23]; 48 h) was > 125 µM.
